Source: patent US6436929B1 (Wyeth, priority 1999, dated 2002)

melting point | Structure (SMILES)
221 to 222.5 °C | CC1(C)OC(=S)Nc2ccc(Br)cc21 [Example 10, 6-Bromo-4,4-dimethyl-1,4-dihydro-benzo[d][1,3]oxazin-2-thione]
173 to 174 °C | CC1OC(=S)Nc2ccc(-c3cccc(F)c3)cc21 (stereo not drawn) [Example 15, 6-(3-fluorophenyl)-4-methyl-1,4-dihydro-2H-3,1-benzoxazine-2-thione]
165 to 167 °C | CC(C)(C)OC(=O)n1c(C#N)ccc1-c1ccc2c(c1)C(C)(C)OC(=S)N2 [Example 17, tert-Butyl 2-cyano-5-(4,4-dimethyl-2-thioxo-1,4-dihydro-2H-3,1-benzoxazin-6-yl)-1H-pyrrole-1-carboxylate]
261 to 262 °C | CC1(C)OC(=S)Nc2ccc(-c3ccc(C#N)[nH]3)cc21 [Example 18, 5(4,4-Dimethyl-2-thioxo-1,4-dihydro-2H-3,1-benzoxazin-6-yl)-1H-pyrrole-2-carbonitrile]
215 to 217 °C | CC1(C)OC(=S)Nc2ccc(-c3cccc(CC#N)n3)cc21 [Example 19, [6-(4,4-dimethyl-2-thioxo-1,4-dihydro-2H-3,1-benzoxazin-6-yl)pyridin-2-yl]acetonitrile]
258 to 259 °C | CC1(C)OC(=S)Nc2ccc(-c3cc(C#N)cs3)cc21 [Example 22, 5-(4,4-Dimethyl-2-thioxo-1,4-dihydro-2H-benzo[d][1,3]oxazin-6-yl)thiophene-3-carbonitrile]
225 to 227 °C | N#Cc1cc(-c2ccc3c(c2)C2(CCCCC2)OC(=S)N3)cs1 [Example 23, 4-(1,2-Dihydro-2-thioxospiro[4H-3,1-benzoxazin-4,1-cyclohexan]-6-yl)-2-thiophenecarbonitrile]
212 to 213 °C | CCn1c(C#N)ccc1-c1ccc2c(c1)C(C)(C)OC(=S)N2 [Example 23, 5-(4,4-dimethyl-2-thioxo-1,4-dihydro-2H-3,1-benzoxazin-6-yl)-1-ethyl-1H-pyrrole-2-carbonitrile]
252 to 253 °C | CC1(C)OC(=S)Nc2ccc(-c3cncc(Br)c3)cc21 [Example 26, 6-(5Bromopyridin-3-yl)-4,4-dimethyl-1,4-dihydro-2H-3,1-benzoxazine-2-thione]
183 to 184 °C | Cc1cc(Br)cc(-c2ccc3c(c2)C(C)(C)OC(=S)N3)c1 [Example 28, 6-(3-Bromo-5-methylphenyl)-4,4-dimethyl-1,4-dihydro-2H-3,1-benzoxazine-2-thione]
192 to 193 °C | CC1(C)OC(=S)Nc2ccc(-c3cc(Br)cc(OC(F)(F)F)c3)cc21 [Example 29, 6-(3-Bromo-5trifluoromethoxyphenyl)-4,4-dimethyl-1,4-dihydro-2H-3,1-benzoxazine-2-thione]
235 to 237 °C | N#Cc1cc(F)cc(-c2ccc3c(c2)C2(CCCCC2)OC(=S)N3)c1 [Example 30, 3-(1,2-Dihydro-2-thioxospiro[4H-3,1-benzoxazine-4,1-cyclohexan]-6-yl)-5-fluorobenzonitrile]
230 to 231 °C | Cc1cc(C#N)cc(-c2ccc3c(c2)C(C)(C)OC(=S)N3)c1 [Example 31, 3-(4,4-Dimethyl-2-thioxo-1,4-dihydro-2H-3,1-benzoxazin-6-yl)-5-methylbenzonitrile]
206 to 208 °C | CC1(C)OC(=S)Nc2ccc(-c3cc(Cl)cc(Cl)c3)cc21 [Example 32, 6-(3,5-Dichlorophenyl)-4,4-dimethyl-1,4-dihydro-2H-3,1-benzoxazine-2-thione]
200 °C (dec.) | CC1(C)OC(=S)Nc2ccc(-c3ccc(C#N)o3)cc21 [Example 34, 5-(4,4-Dimethyl-2-thioxo-1,4-dihydro-2H-3,1-benzoxazin-6-yl)-2-furonitrile]
180 to 181 °C | CCC1(CC)OC(=S)Nc2ccc(-c3cccc([N+](=O)[O-])c3)cc21 [Example 35, 4,4Diethyl-6-(3-nitrophenyl)-1,4-dihydro-2H-3,1-benzoxazine2-thione]
202 to 203 °C | CC1(c2ccccc2)OC(=S)Nc2ccc(-c3cccc(Cl)c3)cc21 (stereo not drawn) [Example 36, 6-(3-Chlorophenyl)-4-methyl-4-phenyl-1,4-dihydro-2H-3,1-benzoxazine-2-thione]
150 to 151 °C | C=CCC1(C)OC(=S)Nc2ccc(-c3cccc(Cl)c3)cc21 (stereo not drawn) [Example 37, 4-Allyl-6-(3-chlorophenyl)-4-methyl-1,4-dihydro-2H-3,1-benzoxazine2-thione]
249 to 251 °C | CC1(C)OC(=S)Nc2ccc(-c3cc(Cl)cc(C#N)c3)cc21 [Example 38, 3-Chloro-5-(4,4-dimethyl-2-thioxo-1,4-dihydro-2H-3,1-benzoxazin-6-yl)benzonitrile]
224 to 225 °C | CC1(C)OC(=S)Nc2ccc(-c3cc(F)cc(F)c3)cc21 [Example 39, 6-(3,5-Difluorophenyl)-4,4-dimethyl-1,4-dihydro-2H-3,1-benzoxazine-2-thione]
170 to 171 °C | COc1cc(F)cc(-c2ccc3c(c2)C(C)(C)OC(=S)N3)c1 [Example 40, 6-(3-Fluoro-5methoxyphenyl)-4,4-dimethyl-1,4-dihydro-2H-3,1-benzoxazine-2-thione]

melting point | Structure (SMILES)
201 to 202 °C | COc1cc(C#N)cc(-c2ccc3c(c2)C(C)(C)OC(=S)N3)c1 [Example 41, 3-(4,4-Dimethyl-2-thioxo-1,4-dihydro2H-3,1-benzoxazin-6-yl)-5-methoxybenzonitrile]
194 to 195 °C | CC1(C)OC(=S)Nc2ccc(-c3cccc(F)c3)cc21 [Example 42, 6-(3-Fluorophenyl)-4,4-dimethyl-1,4-dihydro-2H-3,1-benzoxazine-2-thione]
171 to 173 °C | CC1(C)OC(=S)Nc2ccc(-c3ccccc3F)cc21 [Example 44, 6-(2-Fluorophenyl)-4,4-dimethyl-1,4-dihydro-2H-3,1-benzoxazine-2-thione]
209 to 211 °C | CC1(C)OC(=S)Nc2ccc(-c3ccc(F)c(F)c3)cc21 [Example 45, 6-(3,4-Difluorophenyl)-4,4-dimethyl-1,4-dihydro-2H-3,1-benzoxazine-2-thione]
221 to 223 °C | CC1(C)OC(=S)Nc2ccc(-c3ccc(F)cc3)cc21 [Example 46, 6(4-Fluorophenyl)-4,4-dimethyl-1,4-dihydro-2H-3,1-benzoxazine-2-thione]
197 to 198 °C | CC1(C)OC(=S)Nc2ccc(-c3cccc(F)c3F)cc21 [Example 48, 6-(2,3-Difluorophenyl)-4,4-dimethyl-1,4-dihydro-2H-3,1-benzoxazine-2-thione]
216 to 217 °C | CC1(C)OC(=S)Nc2c(Br)cc(-c3cc(F)cc(C#N)c3)cc21 [Example 49, 3-(8-Bromo-4,4-dimethyl-2-thioxo-1,4-dihydro-2H-3,1-benzoxazin-6-yl)-5-fluorobenzonitrile]
224 to 226 °C | CC1(C)OC(=S)Nc2ccc(-c3cccc([N+](=O)[O-])c3)cc21 [Example 50, 4,4-Dimethyl-6-(3-nitrophenyl)-1,4-dihydro-2H-3,1-benzoxazine-2-thione]
148 to 150 °C | CCC1(CC)OC(=S)Nc2ccc(-c3cccc(Cl)c3)cc21 [Example 51, 6-(3-Chlorophenyl)-4,4-diethyl-1,4-dihydro-2H-3,1-benzoxazine-2-thione]
142 to 143 °C | COc1cccc(-c2ccc3c(c2)C(C)(C)OC(=S)N3)c1 [Example 52, 6-(3-Methoxyphenyl)-4,4-dimethyl-1,4-dihydro-2H-3,1-benzoxazine-2-thione]
171 to 172 °C | CC1(C)OC(=S)Nc2ccc(-c3ccccc3Cl)cc21 [Example 53, 6-(2-Chlorophenyl)-4,4-dimethyl-1,4-dihydro-2H-3,1-benzoxazine-2-thione]
221 to 222 °C | CC1(C)OC(=S)Nc2ccc(-c3cc(F)cc(Br)c3)cc21 [Example 55, 6-(3-Bromo-5-fluorophenyl)-4,4-dimethyl-1,4-dihydro-2H-3,1-benzoxazine-2-thione]
242 to 244 °C | CC1(C)OC(=S)Nc2ccc(-c3ccc(C#N)s3)cc21 [Example 56, 5-(4,4-Dimethyl-2-thioxo-1,4-dihydro-2H-3,1-benzoxazin-6-yl)thiophene-2-carbonitrile]
222 to 224 °C | N#Cc1cccc(-c2ccc3c(c2)C2(CCCCC2)OC(=S)N3)c1 [Example 58, 3(1,2-Dihydro-2-thioxospiro[4H-3,1-benzoxazine4,1-cyclohexan]-6-yl)benzonitrile]
199 to 201 °C | Cc1cc(C#N)sc1-c1ccc2c(c1)C1(CCCCC1)OC(=S)N2 [Example 59, 5-(1,2-Dihydro-2-thioxospiro [4H-3,1-benzoxazine-4,1-cyclohexan]-6-yl)-4-methyl-2-thiophenecarbonitrile]
232 to 233 °C | N#Cc1ccc(-c2ccc3c(c2)C2(CCCCC2)OC(=S)N3)s1 [Example 60, 5-(1,2-Dihydro-2-thioxospiro[4H-3,1-benzoxazine-4,1-cyclohexan]-6yl)-2-thiophenecarbonitrile]
196 to 197 °C | CC1(C)OC(=S)Nc2ccc(-c3ccc(F)c(Cl)c3)cc21 [Example 61, 6-(3-Chloro-4-fluorophenyl)-4,4-dimethyl-1,4-dihydro-2H-3,1-benzoxazine-2-thione]
174 to 175 °C | CCCc1cc(C#N)sc1-c1ccc2c(c1)C(C)(C)OC(=S)N2 [Example 62, 5-(4,4-Dimethyl-2-thioxo-1,4-dihydro-2H-3,1-benzoxazin6-yl)-4-propylthiophene2-carbonitrile]
214 to 216 °C | CC1(C)OC(=S)Nc2ccc(-c3coc(C#N)c3)cc21 [Example 63, 4-(4,4-Dimethyl-2-thioxo-1,4-dihydro-2H-3,1-benzoxazin-6-yl)-2-furonitrile]
174 to 175 °C | CCCCc1cc(C#N)sc1-c1ccc2c(c1)C(C)(C)OC(=S)N2 [Example 64, 4-Butyl-5-(4,4-dimethyl-2-thioxo-1,4-dihydro-2H-3,1-benzoxazin-6-yl)thiophene-2-carbonitrile]
191 to 193 °C | CC1(C)OC(=S)Nc2ccc(-c3cccc(Br)c3)cc21 [Example 65, 6-(3-Bromophenyl)-4,4-dimethyl-1,4-dihydro-2H-3,1-benzoxazine-2-thione]
